Experimental data: patent US12349708B2, “Use and methods of 1,3-propanediol to improve taste and/or off-taste qualities” (Primient Covation LLC, priority 2019, dated 2025)

Experiment: Comparison of energy shot prototypes with and without caffeine and bioPDO (Example 7)
Type: in vivo, human
Details: samples without caffeine
Protocol: • 1. Take 1st sip from a full 30 mL medicine cup, taste and swallow the 1st sample, wait 10 seconds, then take a 2nd sip and lock it into memory. Wait for 10 seconds. • 2. Proceed with 2nd sample. Taste 1st sip of the 2nd sample, wait for 10 seconds, and then use the 2nd sip to compare to the 2nd sip of the 1st sample. • 3. Rinse with DW and wait for approximately 15 seconds. Repeat step 2 for each if extra sampling needed, not to exceed four samples at a time.
Each paired sample evaluation was repeated in duplicate with at least a 10-minute break and a carbon-treated water rinse.
The following samples were prepared for this study: • 1. Existing Sample #3A (Energy shot prototype) without bioPDO. • 2. Existing Sample #3B (Energy shot prototype) with bioPDO. • 3. New Sample #4A with similar levels of sucralose and malic acid as Sample #3A, BUT without bioPDO and caffeine as an experimental sample. • 4. New Sample #4B with similar levels of sucralose, malic acid and bioPDO as Sample #3B, BUT without caffeine as an experimental sample. Results
This study was designed so it would be possible to directly identify any other ‘off-taste’ attribute. […] Below are the comparative sensorial evaluation results in Table 42 including their specific sample formulations, observations and results. Keywords of SUL, MA and CAF are sucralose, malic acid and caffeine, respectively.

Which “modulation of sweet and sour intensities” value does the source give for `OCCCO` [PDO, 1,3-propanediol] here?
Its value is “does not positively or negatively modulate the sweet and sour intensities”.
